Experimental data: ChEMBL document CHEMBL1201862, “PubChem BioAssay data set” (2004)
Activity calls are given as the source filed them.

Tests used:
Assay type in all cases: functional
[1] = target: T1, Melanin-concentrating hormone receptor 1 (Homo sapiens, UniProt Q99705); test: Late-stage fluorescence-based counterscreen for antagonists of the G-protein coupled receptor 7 (GPR7): cell-based dose response assay to identify antagonists of the melanin-concentrating hormone receptor 1 (MCHR1) Set 6.
T1 sequence (Q99705 whole entry): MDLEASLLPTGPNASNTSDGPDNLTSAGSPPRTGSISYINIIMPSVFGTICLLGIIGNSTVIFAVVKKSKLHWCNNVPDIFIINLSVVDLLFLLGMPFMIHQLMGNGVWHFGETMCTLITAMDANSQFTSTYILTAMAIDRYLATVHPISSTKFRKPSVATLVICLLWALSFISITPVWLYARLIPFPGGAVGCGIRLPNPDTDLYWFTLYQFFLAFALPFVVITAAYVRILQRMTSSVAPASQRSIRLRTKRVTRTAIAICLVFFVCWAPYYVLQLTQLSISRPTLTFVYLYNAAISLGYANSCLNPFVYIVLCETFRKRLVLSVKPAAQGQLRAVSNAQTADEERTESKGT

[2] = target: Neuropeptides B/W receptor type 1 (Homo sapiens, UniProt P48145); test: human NPBW1 receptor blockade, IC50 – cell-based, fluorescence, dose response, set 6, late-stage follow-up (AID 588583)
Neuropeptides B/W receptor type 1, sequence (P48145 whole entry): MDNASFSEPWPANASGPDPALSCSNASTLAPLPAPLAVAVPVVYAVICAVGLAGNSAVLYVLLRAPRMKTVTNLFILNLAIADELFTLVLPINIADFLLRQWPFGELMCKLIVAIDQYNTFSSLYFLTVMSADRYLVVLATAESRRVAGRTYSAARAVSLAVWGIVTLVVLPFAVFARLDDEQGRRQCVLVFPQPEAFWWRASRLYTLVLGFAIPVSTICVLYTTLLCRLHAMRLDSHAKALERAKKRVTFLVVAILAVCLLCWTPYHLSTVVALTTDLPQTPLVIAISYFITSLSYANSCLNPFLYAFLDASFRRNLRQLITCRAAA

[3] = target: Calcium/calmodulin-dependent protein kinase type II subunit gamma (Homo sapiens, UniProt Q13555)
Calcium/calmodulin-dependent protein kinase type II subunit gamma, sequence (Q13555 whole entry): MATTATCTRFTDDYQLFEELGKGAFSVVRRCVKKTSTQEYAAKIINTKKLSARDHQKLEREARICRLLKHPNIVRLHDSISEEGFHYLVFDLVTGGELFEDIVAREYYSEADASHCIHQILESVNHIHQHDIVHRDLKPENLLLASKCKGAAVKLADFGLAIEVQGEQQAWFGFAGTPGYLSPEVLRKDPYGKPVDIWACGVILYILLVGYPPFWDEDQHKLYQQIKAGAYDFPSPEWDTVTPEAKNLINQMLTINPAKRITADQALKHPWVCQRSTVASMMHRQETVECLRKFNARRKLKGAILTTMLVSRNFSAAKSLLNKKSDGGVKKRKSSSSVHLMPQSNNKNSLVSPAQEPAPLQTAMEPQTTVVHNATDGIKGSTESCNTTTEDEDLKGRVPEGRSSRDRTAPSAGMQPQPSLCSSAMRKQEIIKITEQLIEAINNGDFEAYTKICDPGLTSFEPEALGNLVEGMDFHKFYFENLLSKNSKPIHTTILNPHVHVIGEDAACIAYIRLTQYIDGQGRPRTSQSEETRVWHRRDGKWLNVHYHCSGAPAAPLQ

[4] = target: Calcium/calmodulin-dependent protein kinase type II subunit delta (Homo sapiens, UniProt Q13557)
Calcium/calmodulin-dependent protein kinase type II subunit delta, sequence (Q13557 whole entry): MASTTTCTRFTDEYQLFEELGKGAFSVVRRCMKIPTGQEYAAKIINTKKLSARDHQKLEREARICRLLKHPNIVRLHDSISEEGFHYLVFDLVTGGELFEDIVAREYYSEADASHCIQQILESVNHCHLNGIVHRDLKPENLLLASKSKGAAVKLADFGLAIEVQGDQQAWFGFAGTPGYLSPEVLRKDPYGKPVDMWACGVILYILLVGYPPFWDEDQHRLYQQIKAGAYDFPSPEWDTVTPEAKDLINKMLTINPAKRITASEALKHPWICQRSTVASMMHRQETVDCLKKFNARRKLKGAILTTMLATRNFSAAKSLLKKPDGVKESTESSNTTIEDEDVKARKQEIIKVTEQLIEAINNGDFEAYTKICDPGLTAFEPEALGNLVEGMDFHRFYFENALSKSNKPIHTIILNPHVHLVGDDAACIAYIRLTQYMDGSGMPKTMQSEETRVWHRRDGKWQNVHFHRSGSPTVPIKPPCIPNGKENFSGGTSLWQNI

[5] = target: Calcium/calmodulin-dependent protein kinase type II subunit beta (Homo sapiens, UniProt Q13554)
Calcium/calmodulin-dependent protein kinase type II subunit beta, sequence (Q13554 whole entry): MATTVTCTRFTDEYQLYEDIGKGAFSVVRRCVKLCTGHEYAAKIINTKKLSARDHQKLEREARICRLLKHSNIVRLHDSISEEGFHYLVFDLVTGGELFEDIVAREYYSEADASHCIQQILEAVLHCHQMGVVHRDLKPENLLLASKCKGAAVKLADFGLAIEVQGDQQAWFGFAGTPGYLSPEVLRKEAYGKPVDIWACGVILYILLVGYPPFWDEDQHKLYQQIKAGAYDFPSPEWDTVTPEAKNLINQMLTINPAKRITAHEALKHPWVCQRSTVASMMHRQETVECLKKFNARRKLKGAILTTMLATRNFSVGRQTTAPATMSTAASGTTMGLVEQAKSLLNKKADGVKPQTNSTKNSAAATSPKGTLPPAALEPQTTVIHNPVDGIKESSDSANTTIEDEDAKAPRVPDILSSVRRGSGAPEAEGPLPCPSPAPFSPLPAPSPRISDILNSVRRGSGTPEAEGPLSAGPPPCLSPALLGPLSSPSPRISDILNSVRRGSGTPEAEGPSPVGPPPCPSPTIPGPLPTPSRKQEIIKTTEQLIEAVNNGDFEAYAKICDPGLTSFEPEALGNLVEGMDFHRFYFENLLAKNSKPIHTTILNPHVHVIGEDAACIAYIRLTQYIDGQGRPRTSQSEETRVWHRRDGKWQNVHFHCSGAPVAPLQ

[6] = target: Tyrosine-protein kinase FRK (Homo sapiens, UniProt P42685);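 also: FRK tested as one member of a kinome panel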
Tyrosine-protein kinase FRK, sequence (P42685 whole entry): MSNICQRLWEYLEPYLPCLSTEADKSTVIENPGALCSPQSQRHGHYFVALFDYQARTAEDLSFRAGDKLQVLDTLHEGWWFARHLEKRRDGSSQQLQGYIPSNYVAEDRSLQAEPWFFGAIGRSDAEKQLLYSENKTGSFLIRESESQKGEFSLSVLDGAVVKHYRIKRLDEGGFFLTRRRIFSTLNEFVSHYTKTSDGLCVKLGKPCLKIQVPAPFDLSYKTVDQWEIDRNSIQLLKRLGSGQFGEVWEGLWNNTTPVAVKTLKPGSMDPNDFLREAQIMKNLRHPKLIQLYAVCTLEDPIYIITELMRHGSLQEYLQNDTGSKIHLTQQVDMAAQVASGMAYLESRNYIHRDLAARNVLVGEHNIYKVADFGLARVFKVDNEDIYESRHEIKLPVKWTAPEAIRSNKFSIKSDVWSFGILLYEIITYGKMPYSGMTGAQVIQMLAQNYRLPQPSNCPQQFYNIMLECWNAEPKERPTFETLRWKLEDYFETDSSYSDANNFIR

[7] = system: INS1; test: suppression of NO production in INS-1E cells – cell-based, Griess absorbance, dry powder, set 2, dose response (AID 488868); conditions: Rattus norvegicus
[8] = target: T1, Melanin-concentrating hormone receptor 1; test: Late-stage fluorescence-based counterscreen for antagonists of the G-protein coupled receptor 7 (GPR7): cell-based dose response assay to identify antagonists of the melanin-concentrating hormone receptor 1 (MCHR1) Set 5.

N#CC(c1ccc(Cl)cc1)c1c(Cl)cnn(Cc2cccc3ccccc23)c1=O (stereo not drawn)
IC50 [1]: 830 nM (active) | IC50 [2]: 830 nM (active)

CCCC(=O)c1ccc(NCc2c[nH]nc2-c2ccc(C(F)(F)F)cc2)cc1
Ki [3]: 3980 nM (active) | Ki [4]: 3980 nM (active) | Ki [5]: 1260 nM (active) | Ki [6]: 2000 nM (active)

C[C@@H]1CN([C@@H](C)CO)C(=O)c2cccc(NS(=O)(=O)c3ccccc3)c2O[C@H]1CN(C)Cc1ccc(C(F)(F)F)cc1
AC50 [7]: 242000 nM (active)

COc1ccc(Oc2c(Cl)cnn(C3c4ccccc4CCc4ccccc43)c2=O)cc1
IC50 [8]: > 20000 nM (inactive)
